Values quoted from earlier work, collected in publication PMC6891762, “Novel Isoxazolidine and γ-Lactam Analogues of Homonucleosides” (Molecules, 2019).
Converted amounts (≈) assume the structure as drawn.

Columns and labels:
human enzymes (UDG) = test system: human enzymes (UDG); set-up: method as in PMID 11084051; conditions: ref [23]; cited from earlier work
[1] = test system: viral uracil-DNA glycosylase (UDG); set-up: method as in PMID 11084051; conditions: ref [23]; cited from earlier work
[2] = test system: reverse transcriptase activity of (AMV) and human immunodeficiency virus (HIV); conditions: ref [34],[35],[36],[37],[38]; cited from earlier work
vaccinia virus = conditions: ref [19],[20],[21]; cited from earlier work
herpes simplex virus = conditions: ref [19],[20],[21]; cited from earlier work
[3] = set-up: method as in PMID 12904074, PMID 20394405, PMID 15743182, PMID 17580846, PMID 17967914; conditions: ref [34],[35],[36],[37],[38]; read-out: 50% cytotoxic concentration (CC50); cited from earlier work
[4] = test system: influenza type virus AH1N1; set-up: method as in PMID 23225323; conditions: ref [22]; cited from earlier work

Row | Structure (SMILES) | level of inhibition of reverse transcriptase activity [2] [nM] | activity against vaccinia virus (vaccinia virus) | minimum inhibitory concentration (MIC) (herpes simplex virus) [µg/mL] | other results
1 | O=c1ccn(C[C@H]2C[C@H](O)[C@@H](CO)O2)c(=O)[nH]1 [Compound 4] |  |  |  | effect on the human enzymes (human enzymes (UDG)): only small effect; inhibition of viral uracil-DNA glycosylase (UDG) [1]: selective inhibitor
2 | C[C@H](Cn1cnc2c(N)ncnc21)OCP(=O)(O)O [tenofovir] | 1 |  |  | 
3 | Nc1nc2c(ncn2C[C@H]2C[C@H](O)[C@@H](CO)O2)c(=O)[nH]1 [Compound 2] |  | active | 5 to 20 | 
4 | Cc1cn([C@H]2C[C@H](N=[N+]=[N-])[C@@H](CO)O2)c(=O)[nH]c1=O [AZT, azidothymidine] | 10 |  |  | CC50 [3]: 12.1 µM
5 | O=c1[nH]cnc2c1ncn2C[C@H]1C[C@H](O)[C@@H](CO)O1 [Compound 3] |  |  |  | IC50 [4]: 25.2 µg/mL (≈ 94.6 µM)
6 | Nc1ncnc2c1ncn2C[C@H]1C[C@H](O)[C@@H](CO)O1 [Compound 1] |  | active | 5 to 20 | 
